ChEMBL document CHEMBL1151614, “Microbial transformations of natural antitumor agents, 25. Conversions of 3-ketoaphidicolin” (1984)
In brackets after ≈: the same amount, converted by molar mass.

Each molecule was assayed on P388 (assay: In vivo antitumor activity against mouse P388 cells).
Format: functional
Work on `C[C@@]1(CO)[C@@H](O)CC[C@@]2(C)[C@H]1CC[C@H]1C[C@@H]3C[C@@]12CC[C@]3(O)CO` yielded an ED50 of 13 µg/mL (≈ 38.4 µM).
With `C[C@@]1(CO)[C@H](O)CC[C@@]2(C)[C@H]1CC[C@H]1C[C@@H]3C[C@@]12CC[C@]3(O)CO` [APHIDICOLIN] the ED50 was 0.13 µg/mL (≈ 0.384 µM).
For `C[C@@]1(CO)[C@H](O)CC[C@@]2(C)[C@H]1[C@H](O)C[C@H]1C[C@@H]3C[C@@]12CC[C@]3(O)CO`, the ED50 was 18 µg/mL (≈ 50.8 µM).
In the case of `C[C@@H]1C(=O)CC[C@@]2(C)[C@H]1CC[C@H]1C[C@@H]3C[C@@]12CC[C@]3(O)CO`, the ED50 is reported as 12 µg/mL (≈ 39.2 µM).
`C[C@]12CCC(=O)[C@@](C)(CO)[C@@H]1CC[C@H]1C[C@@H]3C[C@@]12CC[C@]3(O)CO` was tested, and the ED50 was 2.4 µg/mL (≈ 7.13 µM).
For `C[C@]12CCC(=O)[C@@](C)(CO)[C@@H]1[C@H](O)C[C@H]1C[C@@H]3C[C@@]12CC[C@]3(O)CO`, the ED50 was 100 µg/mL (≈ 284 µM).
Work on `C[C@@]1(C(=O)O)[C@H](O)CC[C@@]2(C)[C@H]1CC[C@H]1C[C@@H]3C[C@@]12CC[C@]3(O)CO` yielded an ED50 of 2.2 µg/mL (≈ 6.24 µM).
